Assay results from PubChem BioAssay (NCI).
“And” between values parts separate entries of the source, which are not always exact repeats. Identical values can stand only once.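 Compound exposure: 48 hours, 5 concentrations, 96-well plates. GI50 is the concentration that inhibits growth by half. TGI is the concentration that stops growth completely.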

Experiments:
Assay in all cases: inhibition of tumour cell growth, NCI panel, 48 h
PC-3 prostate = test system: PC-3 prostate
MDA-MB-435 = test system: MDA-MB-435
OVCAR-4 ovarian = test system: OVCAR-4 ovarian
SNB-19 CNS = test system: SNB-19 CNS
SF-295 CNS = test system: SF-295 CNS
SW-620 colon = test system: SW-620 colon
SK-MEL-28 melanoma = test system: SK-MEL-28 melanoma
OVCAR-8 ovarian = test system: OVCAR-8 ovarian
SN12C renal = test system: SN12C renal
M14 melanoma = test system: M14 melanoma

Row | Structure (SMILES) | GI50 (PC-3 prostate) [µM] | TGI (PC-3 prostate) | GI50 (MDA-MB-435) | TGI (MDA-MB-435) | GI50 (OVCAR-4 ovarian) [µM] | TGI (OVCAR-4 ovarian) | GI50 (SNB-19 CNS) | TGI (SNB-19 CNS) | GI50 (SF-295 CNS) [µM] | TGI (SF-295 CNS) | GI50 (SW-620 colon) | TGI (SW-620 colon) | GI50 (SK-MEL-28 melanoma) | TGI (SK-MEL-28 melanoma) | TGI (OVCAR-8 ovarian) | GI50 (SN12C renal) [µM] | TGI (SN12C renal) | GI50 (M14 melanoma) [µM] | TGI (M14 melanoma) | GI50 (OVCAR-8 ovarian)
1 | CN1CCN(C2CCN(C(=O)Nc3cc(Oc4ccc(NC(=O)C5(C(=O)Nc6ccc(F)cc6)CC5)c(F)c4)ccn3)CC2)CC1 | 1.01 | > 3.84 µM | 0.918 µM | > 3.27 µM | 1.14 | 9.84 µM | 0.354 µM | > 10 µM | 0.47 | > 3.67 µM | 1.43 µM | > 10 µM | 0.771 µM | 2.28 µM | > 10 µM | 0.855 | > 7.82 µM | 0.639 | 1.8 µM | –
2 | CC1(C)S[C@@H]2[C@H](NC(=O)C3(N)CCCCC3)C(=O)N2[C@H]1C(=O)O | – | > 100 µM | – | > 100 µM | – | > 100 µM | – | > 100 µM | – | > 100 µM | – | > 100 µM | – | > 100 µM | > 100 µM | – | > 100 µM | – | > 100 µM | –
3 | COC(=O)c1ccc2c(c1)nc(NC(=O)c1ccccc1)n2CCCc1ccccc1 | 4.07 | > 100 µM | 3.4 µM | > 100 µM | 2.93 | > 100 µM | 4.25 µM | > 100 µM | 3.62 | > 100 µM | 4.03 µM | > 100 µM | 3.79 µM | > 100 µM | > 100 µM | 17.6 | > 100 µM | 2.28 | > 100 µM | 4.79 µM
4 | COc1ccc(C2SC(N)=Nc3c2c(C)nn3C(=O)c2ccncc2)cc1OC (centres undefined) | – | > 10 µM | – | > 10 µM | – | > 10 µM | – | > 10 µM | – | > 10 µM | – | > 10 µM | – | > 10 µM | > 10 µM | – | > 10 µM | – | > 10 µM | –
5 | COc1cccc(F)c1C(=O)c1cnc(NC2CCN(S(C)(=O)=O)CC2)nc1N | 0.984 | 12.3 µM | 2.48 µM | > 25 µM | 5.61 | > 25 µM | 3.46 µM | > 25 µM | 3 | > 25 µM | 0.781 µM | > 18.1 µM | 3.43 µM | > 20.8 µM | > 25 µM | 5.08 | > 25 µM | 5.33 | > 25 µM | 4.08 µM
6 | Cn1c(I)c(C#CCO[Si](C)(C)C(C)(C)C)c(=O)[nH]c1=O | 17 | 32.7 µM | 13.9 µM | 27.8 µM | 10.1 | 27.4 µM | > 100 µM | > 100 µM | > 100 | > 100 µM | 1.96 µM | 4.14 µM | 2.95 µM | 9.05 µM | 51.7 µM | 17.1 | 34.2 µM | 14 | 28.7 µM | 22.4 µM
7 | COc1cc(Nc2ncccc2C(=O)NCc2cn(Cc3cccc(Oc4ccccc4)c3)nn2)cc(OC)c1 | 4.74 | > 100 µM | 2.23 µM | 5.43 µM | 5.42 | > 100 µM | 9.64 µM | > 100 µM | 4.06 | > 100 µM | 3.88 µM | > 100 µM | 4.14 µM | > 100 µM | > 100 µM | 7.41 | > 100 µM | 4.8 | > 100 µM | 5.96 µM
8 | CC(C)NC(=O)OCc1c(COC(=O)NC(C)C)c(-c2cc[n+](COC(=O)C3CC3)cc2)n2c1CCC2 | – | > 100 µM | – | > 100 µM | – | > 100 µM | – | > 100 µM | – | > 100 µM | – | > 100 µM | – | > 100 µM | > 100 µM | – | > 100 µM | – | > 100 µM | –
9 | O=C(Nc1ccc2ncccc2c1)Nc1ccc2ncccc2c1 | – | > 100 µM | – | > 100 µM | – | > 100 µM | – | > 100 µM | – | > 100 µM | – | > 100 µM | – | > 100 µM | > 100 µM | – | > 100 µM | – | > 100 µM | –
10 | C(=NCCN1CCOCC1)=NC1CCCCC1 | – | > 100 µM | – | > 100 µM | – | > 100 µM | – | > 100 µM | – | > 100 µM | – | > 100 µM | – | > 100 µM | > 100 µM | – | > 100 µM | – | > 100 µM | –
11 | C=C1C(=O)OC2CC(C)C(C(CC(C)=O)OC(C)=O)=CCC12 (centres undefined) | – | 41.8 µM | – | 33 µM | – | 34.2 µM | – | > 74.9 µM | – | 62 µM | – | 10.6 µM | – | 24.1 µM | > 51.8 µM | – | 15 µM | – | 36.9 µM | –
12 | Nc1nn2cc(F)cnc2c1C(=O)Nc1cncc(F)c1N1CCC(C(=O)N2CCN(C3COC3)CC2)CC1 | 2.06 | > 100 µM | 0.266 µM | 2.54 µM | 0.326 | 7.86 µM | 0.91 µM | 7.68 µM | 0.238 | 1.86 µM | 1.51 µM | > 100 µM | 2.95 µM | > 100 µM | 6.13 µM | 0.987 | 6.17 µM | 0.154 | 5.4 µM | 0.548 µM
13 | CC1(C)C(C#N)C1C1=C(N2CCOCC2)[C@]2(C)C(OC(=O)c3ccccc3)CC[C@@H]2C1 (some centres undefined) | – | > 100 µM | – | > 100 µM | – | > 100 µM | – | > 100 µM | – | > 100 µM | – | > 100 µM | – | > 100 µM | > 100 µM | – | > 100 µM | – | > 100 µM | –
14 | N#Cc1c(N)nc(N2CCOCC2)c(C#N)c1-c1ccncc1 | 32 | > 100 µM | > 100 µM | > 100 µM | > 100 | > 100 µM | > 100 µM | > 100 µM | 44.3 | > 100 µM | > 100 µM | > 100 µM | > 100 µM | > 100 µM | > 100 µM | 88.6 | > 100 µM | > 100 | > 100 µM | > 100 µM
15 | COc1cccc(C2CC(C)(O)Oc3cc4c(cc32)OCO4)c1O (centres undefined) | – | > 100 µM | – | 9.77 µM | – | > 100 µM | – | > 100 µM | – | 64.9 µM | – | > 100 µM | – | > 100 µM | 67.8 µM | – | 89.2 µM | – | > 65.8 µM | –
16 | N#Cc1c(NC(=O)NCc2ccccc2)sc2c1CCCCC2 | 0.488 | > 100 µM | 0.22 µM | 0.564 µM | 1.32 | > 100 µM | 0.588 µM | > 100 µM | 0.425 | 24 µM | 0.406 µM | > 100 µM | 2.77 µM | > 100 µM | > 100 µM | 0.682 | > 100 µM | 0.415 | > 100 µM | 1.61 µM
17 | COc1cccc(CC(C)=C(c2ccc(OCCN(C)C)cc2)c2ccc(OCCN(C)C)cc2)c1 | 1.95 | 6.82 µM | 0.682 µM | 1.37 µM | 3.53 | 8.16 µM | 4.38 µM | 8.99 µM | 4.07 | 8.62 µM | 0.735 µM | 1.82 µM | 0.602 µM | 1.1 µM | 6.71 µM | 4.19 | 8.69 µM | 0.612 | 1.2 µM | 2.04 µM
18 | C=C(Cl)C(=CCl)CCC(Br)C(C)(C)Cl (mixture of isomers) | – | > 10 µM | – | > 10 µM | – | > 10 µM | – | > 10 µM | – | > 10 µM | – | > 10 µM | – | > 10 µM | > 10 µM | – | > 10 µM | – | > 10 µM | –
19 | CNCc1ccccc1-c1csc([C@@H](C)Nc2nc(C)nc3cc(OC)c(OC)cc23)c1 | 4.01 | 12.3 µM | 1.75 µM | 3.2 µM | 2.4 | 10.7 µM | 1.84 µM | 6.69 µM | 1.45 | 2.88 µM | 1.49 µM | 3.44 µM | 1.95 µM | 3.53 µM | 7.65 µM | 1.48 | 5.02 µM | 1.79 | 3.35 µM | 2.29 µM
20 | O=C(Nc1ccc(Nc2ccncc2)cc1)c1ccc([N+](=O)[O-])cc1 | 13.7 | > 56.6 µM | 5.47 µM | 21.2 µM | 5.37 | 27.4 µM | 4.47 µM | 20.7 µM | 3.79 | 10.3 µM | 2.22 µM | 5.08 µM | 5 µM | 16.7 µM | 32.6 µM | 2.75 | 8.79 µM | 7.18 | 26.9 µM | 8.44 µM
21 | COc1cccc2c1C(=O)c1c(O)c3c(c(O)c1C2=O)C[C@@](O)(C(=O)CO)C[C@@H]3OC1CC(N)CC(C)O1 (some centres undefined) | 0.0558 | 0.33 µM and 0.246 µM | 0.131 µM and 0.0327 µM | 0.283 µM and 0.156 µM | 0.0885 | 0.456 µM and 0.413 µM | 0.0391 µM and 0.0413 µM | 2.31 µM and 3.06 µM | 0.018 | 0.208 µM and 0.13 µM | 0.0117 µM and 0.0389 µM | 0.434 µM and 1.36 µM | 0.135 µM and 0.0938 µM | 0.325 µM and 0.477 µM | 1.13 µM and 0.546 µM | 0.0232 | 1.43 µM and 1.07 µM | 0.036 | 0.278 µM and 0.218 µM | 0.0359 µM and 0.052 µM
22 | C/C=C/C(CC(O)(C(F)(F)F)C(F)(F)F)=N/NC(N)=S | – | > 10 µM | – | > 10 µM | – | > 10 µM | – | > 10 µM | – | > 10 µM | – | > 10 µM | – | > 10 µM | > 10 µM | – | > 10 µM | – | > 10 µM | –
